Structures are written as SMILES. Structures can show the parent of a compound that is named as a salt.

This is an account of results in patent publication US20110245293A1, “PHARMACEUTICAL PRODUCT COMPRISING A MUSCARINIC RECEPTOR ANTAGONIST AND A BETA-2-ADRENOCEPTOR AGONIST” (priority 2008, published 2011).

Data set [1] concerns the target T1, Adrenergic β2 (Homo sapiens, UniProt P07550).
T1 construct: endogenous in cells; host or cells: H292 cells
As to the kind of experiment: Adrenergic β2 mediated cAMP production in H292 cells (AlphaScreen). In kind it is cell-based. To be noted: Intrinsic Activity as a fraction relative to the maximum activity of formoterol. On the procedure:
Adrenergic β2 Mediated cAMP Production
H292 cells were grown in 225 cm2 flasks incubator at 37° C., 5% CO2 in RPMI medium containing, 10% (v/v) FBS (foetal bovine serum) and 2 mM L-glutamine.
Adherent H292 cells were removed from tissue culture flasks by treatment with Accutase™ cell detachment solution for 15 minutes. Flasks were incubated for 15 minutes in a humidified incubator at 37° C., 5% CO2. Detached cells were re-suspended in RPMI media (containing 10% (v/v) FBS and 2 mM L-glutamine) at 0.05×10^6 cells per mL. 5000 cells in 100 μL were added to each well of a tissue-culture-treated 96-well plate and the cells incubated overnight in a humidified incubator at 37° C., 5% CO2. The culture media was removed and cells were washed twice with 100 μL assay buffer and replaced with 50 μL assay buffer (HBSS solution containing 10 mM HEPES pH7.4 and 5 mM glucose). Cells were rested at room temperature for 20 minutes after which time 25 μL of rolipram (1.2 mM made up in assay buffer containing 2.4% (v/v) dimethylsulphoxide) was added. Cells were incubated with rolipram for 10 minutes after which time Compound A was added and the cells were incubated for 60 minutes at room temperature. The final rolipram concentration in the assay was 300 μM and final vehicle concentration was 1.6% (v/v) dimethylsulphoxide. The reaction was stopped by removing supernatants, washing once with 100 μL assay buffer and replacing with 50 μL lysis buffer. The cell monolayer was frozen at −80° C. for 30 minutes (or overnight).
The concentration of cAMP (cyclic adenosine monophosphate) in the cell lysate was determined using AlphaScreen™ methodology. […] The AlphaScreen™ signal was measured using an EnVision spectrophotometer (Perkin-Elmer Inc.) with the recommended manufacturer's settings. cAMP concentrations were determined by reference to a calibration curve determined in the same experiment using standard cAMP concentrations. […] Intrinsic Activity was expressed as a fraction relative to the maximum activity determined for formoterol in each experiment.

Data set [2] can be described thus: Dynamic vapour sorption (DVS) analysis of crystalline material. In kind it is physicochemical. Particulars: at 80% RH, 25° C. On the procedure:
Dynamic vapour sorption (DVS) analysis was performed on a Surface Measurement systems (SMS) DVS-Intrinsic moisture sorption analyser. The instrument was controlled by SMS Analysis Suite software (DVS-Intrinsic Control v1.0.0.30). Analysis of the data was performed using Microsoft Excel 2007 together DVS Standard Analysis Suite (v6.0.0.7). Sample temperature was maintained at 25° C. and the sample humidity was obtained by mixing streams of wet and dry nitrogen at a total flow rate of 200 mlmin^−1. The relative humidity was measured using a calibrated Rotronic probe (dynamic range 1-100% Relative Humidity (RH)) located close to the sample. The weight change of the sample as a function of % RH was constantly monitored by the microbalance (accuracy±0.005 mg). Typically a PXRD would be run prior to analysis. 20 mg of sample was then placed in a tared stainless steel mesh basket under ambient conditions. The sample was loaded and unloaded at 40% RH and 25° C. (typical room conditions) and the sample subjected to a graduated DVS regime over 2 cycles using the parameters shown in Table 1.

The nature of data set [3]: Gravimetric Vapour Sorption (GVS) of crystalline material. The data set is classed as physicochemical. Particulars: at 80% RH. Here is the method:
Gravimetric Vapour Sorption (GVS) profiles were measured using a Surface Measurements Systems Dynamic Vapour Sorption DVS-1 or a DVS Advantage instrument. The solid sample ca. 1-5 mg was placed into a glass vessel and the weight of the sample was recorded during a dual cycle step method (40 to 90 to 0 to 90 to 0% relative humidity (RH), in steps of 10% RH).

T1 sequence (P07550 whole entry): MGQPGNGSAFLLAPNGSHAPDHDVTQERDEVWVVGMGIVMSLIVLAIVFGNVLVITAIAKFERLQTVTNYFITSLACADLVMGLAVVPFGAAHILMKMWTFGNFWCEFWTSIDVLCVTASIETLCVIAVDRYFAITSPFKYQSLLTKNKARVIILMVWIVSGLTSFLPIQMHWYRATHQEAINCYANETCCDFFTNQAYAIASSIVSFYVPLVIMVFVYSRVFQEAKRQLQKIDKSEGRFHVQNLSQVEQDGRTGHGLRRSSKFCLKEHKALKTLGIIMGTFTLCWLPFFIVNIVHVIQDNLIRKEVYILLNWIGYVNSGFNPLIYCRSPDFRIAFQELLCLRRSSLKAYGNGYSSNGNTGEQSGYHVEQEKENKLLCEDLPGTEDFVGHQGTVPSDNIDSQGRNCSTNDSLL

For the molecule `CCN(CC)CCN(CCNCCc1ccc(O)c2[nH]c(=O)sc12)C(=O)CCOCCc1cccc2ccccc12` [BA1, N-[2-(Diethylamino)ethyl]-N-(2-{[2-(4-hydroxy-2-oxo-2,3-dihydro-1,3-benzothiazol-7-yl)ethyl]amino}ethyl)-3-[2-(1-naphthyl)ethoxy]propanamide dihydrobromide], the “β2 Int Act” value in data set [1] was 0.8. The same measure, in the same setting: the value for `CCN(CC)CCN(CCNCCc1ccc(O)c2[nH]c(=O)sc12)C(=O)CCOCCc1cccc(Cl)c1` [BA2, N-[2-(Diethylamino)ethyl]-N-(2-{[2-(4-hydroxy-2-oxo-2,3-dihydro-1,3-benzothiazol-7-yl)ethyl]amino}ethyl)-3-[2-(3-chlorophenyl)ethoxy]propanamide dihydrobromide] was 0.7. `O=c1[nH]c2c(O)ccc([C@@H](O)CNCCSCCCNCCc3ccccc3Cl)c2s1` [BA3, 7-[(1R)-2-({2-[(3-{[2-(2-Chlorophenyl)ethyl]amino}propyl)thio]ethyl}amino)-1-hydroxyethyl]-4-hydroxy-1,3-benzothiazol-2(3H)-one dihydrobromide]: the “β2 Int Act” value in data set [1] worked out at 0.8. As to `O=S(=O)([O-])c1ccccc1.O[C@](c1ccccc1)(c1cc(C[N+]23CCC(CC2)[C@@H](Oc2ccc(F)cc2)C3)on1)C1CCCCC1` [Example 2, (R)-1-[3-((R)-Cyclohexyl-hydroxy-phenyl-methyl)-isoxazol-5-ylmethyl]-3-(4-fluoro-phenoxy)-1-azonia-bicyclo[2.2.2]octane benzenesulfonate], the DVS weight increase in data set [2] was 0.2 % (% w/w). For the molecule `O[C@](c1ccccc1)(c1cc(C[N+]23CCC(CC2)[C@@H](Oc2cccc(F)c2)C3)on1)C1CCCCC1.[Cl-]` [Example 3, (R)-1-[3-((R)-Cyclohexyl-hydroxy-phenyl-methyl)-isoxazol-5-ylmethyl]-3-(3-fluoro-phenoxy)-1-azonia-bicyclo[2.2.2]octane chloride], the “GVS mass increase 1st cycle” value in data set [3] (1st cycle) is “approximately 5%”. Further, in data set [3] (2nd cycle), the “GVS mass increase 2nd cycle” value was around 6.5%. Take `O[C@](c1ccccc1)(c1cc(C[N+]23CCC(CC2)[C@@H](Oc2cccc(F)c2)C3)on1)C1CCCCC1` [Example 4, (R)-1-[3-((R)-Cyclohexyl-hydroxy-phenyl-methyl)-isoxazol-5-ylmethyl]-3-(3-fluoro-phenoxy)-1-azonia-bicyclo[2.2.2]octane 2-hydroxy-ethanesulfonate]: in data set [3], the GVS mass increase result is reported as “no mass increase”. On the same count and under the same terms, in the case of `O[C@](c1ccccc1)(c1nnc(C[N+]23CCC(CC2)[C@@H](Oc2ccc(F)cc2)C3)o1)C1CCCCC1.[Br-]` [Example 5, (R)-1-[5-((R)-Cyclohexyl-hydroxy-phenyl-methyl)-[1,3,4]oxadiazol-2-ylmethyl]-3-(4-fluoro-phenoxy)-1-azonia-bicyclo[2.2.2]octane bromide] it was “approximately 0.8%”. Regarding `Cc1ccc(O[C@H]2C[N+]3(Cc4cc(C(O)(c5ccccc5)c5ccccc5)no4)CCC2CC3)cc1F.[Br-]` [Example 7, (R)-3-(3-Fluoro-4-methyl-phenoxy)-1-[3-(hydroxy-diphenyl-methyl)-isoxazol-5-ylmethyl]-1-azonia-bicyclo[2.2.2]octane bromide], the GVS mass increase result in data set [3] is “approximately 0.1%”.
